Literature values, collected in patent US20110136769A1, “METHOD OF TREATING MEN WITH TE[…] 5ALPHA-REDUCTASE INHIBITOR” (Merck Sharp & Dohme Corp., priority 2007, published 2011).

Tests used:
[1] = target: T1, 5α-reductase type 2 (Homo sapiens, UniProt P31213); details: background statement
T1 construct: Samples of human tissue were pulverized using a freezer mill and homogenized; from tissue; host or cells: human prostate (crude nuclear pellet of homogenate)
T1 sequence (P31213 1-254): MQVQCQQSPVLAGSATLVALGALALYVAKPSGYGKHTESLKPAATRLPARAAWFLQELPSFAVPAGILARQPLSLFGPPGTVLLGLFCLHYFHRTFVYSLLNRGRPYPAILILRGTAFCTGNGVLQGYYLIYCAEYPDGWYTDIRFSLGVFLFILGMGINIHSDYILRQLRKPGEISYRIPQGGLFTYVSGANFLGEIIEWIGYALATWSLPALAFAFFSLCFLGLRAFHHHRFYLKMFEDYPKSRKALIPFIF

[2] = target: T2, 5α-reductase type 1 (Homo sapiens, UniProt P18405); details: background statement
T2 construct: Samples of human tissue were pulverized using a freezer mill and homogenized; from tissue; host or cells: human scalp (crude nuclear pellet of homogenate)
T2 sequence (P18405 1-259): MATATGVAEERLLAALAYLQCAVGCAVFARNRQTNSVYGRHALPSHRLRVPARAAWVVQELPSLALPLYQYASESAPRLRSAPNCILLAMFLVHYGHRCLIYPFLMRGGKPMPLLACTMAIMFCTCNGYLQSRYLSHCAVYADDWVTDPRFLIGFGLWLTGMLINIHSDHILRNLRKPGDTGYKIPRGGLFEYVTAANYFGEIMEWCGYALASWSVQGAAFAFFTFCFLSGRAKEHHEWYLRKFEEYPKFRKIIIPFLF

## CC(C)(C)NC(=O)[C@H]1CCC2C3CCC4NC(=O)C=C[C@]4(C)C3CC[C@@]21C (stereo partly drawn) [Finasteride, 17β-(N-tert-butylcarbamoyl)-3-oxo-4-aza-5α-androst-1-en-3-one]
[1]
  inhibition of the human type 2 enzyme: potent inhibitor

## C[C@]12C=CC(=O)N[C@@H]1CC[C@@H]1[C@@H]2CC[C@]2(C)[C@@H](C(=O)Nc3cc(C(F)(F)F)ccc3C(F)(F)F)CC[C@@H]12 [dutasteride]
[2]
  inhibition of 5α-reductase type 1: potent inhibitors
[1]
  inhibition of the human type 2 enzyme: potent inhibitors
